{"source": "patent US20040106647A1", "about": "“Modulators of Cdk9 as a therapeutic target in cardiac hypertrophy” (priority 2002, published 2004)", "molecules": {"B1": {"name": "heparin-binding epidermal growth factor (protein, UniProt Q99075 63-148, looked up)", "Heparin-binding EGF-like …": "DLQEADLDLLRVTLSSKPQALATPNKEEHGKRKKKGKGLGKKRDPCLRKYKDFCIHGECKYVKELRAPSCICHPGYHGERCHGLSL", "notes": "member of the EGF family, secreted mediator of growth signals in the heart"}, "B2": {"name": "RNase A: bovine pancreas ribonuclease A (Sigma) (protein, UniProt P61823 27-150, looked up)", "Ribonuclease pancreatic": "KETAAAKFERQHMDSSTSAASSSNYCNQMMKSRNLTKDRCKPVNTFVHESLADVQAVCSQKNVACKNGQTNCYQSYSTMSITDCRETGSSKYPNCAYKTTQANKHIIVACEGNPYVPVHFDASV"}}, "key": {"pol II CTD": {"test_system": "pol II CTD", "assay": "Western blotting of pol II CTD phosphorylation in cultured ventricular myocytes", "assay_type": "cell-based, rat", "conditions": "for hyperphosphorylation of pol II: serum-starved 24 hr, stimulated 15 min, ET-1 0.1 μM, PE 0.1 μM, HB-EGF 1 nM", "procedure": "Western blotting was performed using the identical cell lysates. The following antibodies were used: rabbit antibodies against pol II, Cdk7, Cyclin H, MAT1, CyclinT1, Hsp70, Hsp90 and Cdc37; goat antibody against Cyclin T2a/b; and mouse monoclonal antibodies to the Ser2 and Ser5 CTD phoshopeptides (Patturajan et al., 1998; Herrmann et al., 2001). Protein expression was visualized using horseradish peroxidase-conjugated second antibodies and enhanced chemiluminescence reagents (Amersham Pharmacia Biotech).\n(§1) Neonatal ventricular myocytes from 1 to 2 day-old Sprague-Dawley rats were subjected to Percoll gradient centriftigation and differential plating, to enrich for cardiac myocytes and deplete nonmyocytes (Oh et al., 2001). Cells were infected for 6 hr, after overnight culture, at a multiplicity of infection (MOI) of 20, then were cultured in serum-free medium for an additional 24 hr before the addition of agonists. The efficiency of viral gene transfer is >95% under the conditions used. DRB (Sigmna) was dissolved in dimethylsulfoxide (DMSO) and then in culture medium to the desired final concentration in 0.1% (vol/vol) DMSO.\nBriefly, ventricular myocytes were analyzed by Western blotting as in Example 1. Ventricular myocytes were serum-starved for 24 hr, stimulated for 15 min with ET-1 (0.1 μM), PE (0.1 μM), HB-EGF (1 nM), or the vehicle, and analyzed by Western blotting with antibody to the pol II CTD. Ventricular myocytes were stimulated with ET-1 for the indicated times.\n(§2) Next, cells were preincubated with DRB for 2 hr at the concentrations shown, and were assayed for pol II phosphorylation after stimulation with ET-1 for 15 min or the indicated intervals. Immune complexes were treated in vitro with 50 μM DRB and assayed by phosphorylation of the recombinant GST-CTD substrate. […] Based on this effect, 50 μM DRB was added in vitro to cardiac Cdk9 and Cdk7 immune complexes, and assayed for its effect on phosphorylation of the recombinant CTD substrate."}, "[1]": {"biological_target": "cyclin dependent kinase 9 (Cdk9) (endogenous, mouse myocardium) (mouse) (UniProt Q99J95)", "sequence (Q99J95 whole entry)": "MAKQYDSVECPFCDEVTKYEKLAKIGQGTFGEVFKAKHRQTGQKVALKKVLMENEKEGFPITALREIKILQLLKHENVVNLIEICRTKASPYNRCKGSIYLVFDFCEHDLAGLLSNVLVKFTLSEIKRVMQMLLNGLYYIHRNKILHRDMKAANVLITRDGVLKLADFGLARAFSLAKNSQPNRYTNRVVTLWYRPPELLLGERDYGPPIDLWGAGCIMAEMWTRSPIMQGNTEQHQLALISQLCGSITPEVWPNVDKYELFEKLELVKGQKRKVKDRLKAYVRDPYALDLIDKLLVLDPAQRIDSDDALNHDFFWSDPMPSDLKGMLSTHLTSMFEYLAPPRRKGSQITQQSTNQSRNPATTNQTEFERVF", "assay": "cell-based or functional assay"}, "cardiac myocytes [2]": {"test_system": "cardiac myocytes", "assay": "Myocyte size visualized with eGFP", "assay_type": "cell-based, rat", "conditions": "DRB pretreatment, ET-1 stimulation", "procedure": "as §1\n(§3) Hypertrophy was monitored as [^3H]uridine incorporation (FIG. 2F, FIG. 2H; n=4 per group) and [^3H]phenylalanine incorporation (FIG. 2I; n=6 per group), corrected for DNA content. Myocyte size was visualized with eGFP (FIG. 2G, FIG. 2J). Bar, 100 μm."}, "cardiac myocytes [3]": {"test_system": "cardiac myocytes", "assay": "[3H]uridine incorporation (RNA synthesis) in cardiac myocytes", "assay_type": "cell-based, rat", "procedure": "as §1\nCells were incubated for 24 hr with 1 μCi/ml of either precursor, in the absence or presence of ET-1 and [^3H]uridine and [^3H]phenylalanine incorporation was measured. Total RNA was extracted using TRIzol (Invitrogen), for simultaneous extraction of DNA from the samples.\nas §3"}, "Cdk7": {"biological_target": "T1, Cdk7 (Rattus norvegicus, UniProt P51952)", "T1 construct": "endogenous in cells; host or cells: neonatal rat ventricular myocytes; immunoprecipitated with polyclonal rabbit anti-Cdk7 and protein A-Sepharose", "T1 sequence (P51952 1-329)": "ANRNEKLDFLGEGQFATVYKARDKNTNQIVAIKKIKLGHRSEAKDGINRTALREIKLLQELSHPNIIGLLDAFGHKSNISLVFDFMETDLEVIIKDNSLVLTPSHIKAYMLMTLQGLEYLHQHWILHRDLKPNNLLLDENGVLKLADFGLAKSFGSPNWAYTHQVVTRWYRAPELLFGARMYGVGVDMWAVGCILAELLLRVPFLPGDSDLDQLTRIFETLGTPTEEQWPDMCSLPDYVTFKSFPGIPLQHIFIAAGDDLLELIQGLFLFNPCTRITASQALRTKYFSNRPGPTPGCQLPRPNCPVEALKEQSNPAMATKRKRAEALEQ", "T1 sequence (Q9R1A0 1-323 partner)": "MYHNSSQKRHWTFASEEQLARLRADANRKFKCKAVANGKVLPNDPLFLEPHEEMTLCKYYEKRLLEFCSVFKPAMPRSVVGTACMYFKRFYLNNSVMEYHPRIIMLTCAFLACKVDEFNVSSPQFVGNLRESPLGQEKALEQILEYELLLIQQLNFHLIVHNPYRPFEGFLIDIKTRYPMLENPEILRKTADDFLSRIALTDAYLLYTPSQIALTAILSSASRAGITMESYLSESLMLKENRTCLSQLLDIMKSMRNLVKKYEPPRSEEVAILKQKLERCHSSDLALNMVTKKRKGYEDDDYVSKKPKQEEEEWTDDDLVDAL", "assay": "Immune complex CTD kinase assay (GST-CTD substrate), Cdk7", "assay_type": "biochemical", "conditions": "50 μM DRB added in vitro to cardiac immune complexes", "procedure": "(§4) Immune complex kinase assays were performed as described (Yang et al., 1996), using polyclonal rabbit antibody against Cdk7 or Cdk9 together with protein A-Sepharose. Kinase assays were performed by adding 25 μl of 50 mM Tris-HCl [pH 7.4], 10 mM MgCl2, 5 mM dithiothreitol, 2.5 mM MnCl2, 5 μM ATP, 5 μCi of [γ-^32P]ATP, and 200 ng of GST-CTD to the beads and incubating at room temperature for 60 min. The complexes were resolved by SDS-polyacrylamide gel electrophoresis, and CTD phosphorylation was visualized by autoradiography and quantified using a phosphorimager and ImageQuant version 5.2 (Molecular Dynamics). Where indicated, immunoprecipiates were incubated with 50 μg/ml of bovine pancreas ribonuclease A (RNase A; Sigma) for 60 min prior to the CTD kinase assay.\nas §2"}, "[4]": {"test_system": "mitogen-activated protein kinases", "assay": "Phosphorylation of mitogen-activated protein kinases in cultured cardiac myocytes", "assay_type": "cell-based, rat", "conditions": "50 μM DRB"}, "Cdk9 [5]": {"biological_target": "Cdk9 (Homo sapiens, UniProt P50750)", "sequence (P50750 whole entry, species assumed)": "as the sequence (Q99J95 whole entry) above, with T17S, K37R, Q40K, K258N, F262Y counted along it", "sequence (O60563 whole entry partner, species assumed)": "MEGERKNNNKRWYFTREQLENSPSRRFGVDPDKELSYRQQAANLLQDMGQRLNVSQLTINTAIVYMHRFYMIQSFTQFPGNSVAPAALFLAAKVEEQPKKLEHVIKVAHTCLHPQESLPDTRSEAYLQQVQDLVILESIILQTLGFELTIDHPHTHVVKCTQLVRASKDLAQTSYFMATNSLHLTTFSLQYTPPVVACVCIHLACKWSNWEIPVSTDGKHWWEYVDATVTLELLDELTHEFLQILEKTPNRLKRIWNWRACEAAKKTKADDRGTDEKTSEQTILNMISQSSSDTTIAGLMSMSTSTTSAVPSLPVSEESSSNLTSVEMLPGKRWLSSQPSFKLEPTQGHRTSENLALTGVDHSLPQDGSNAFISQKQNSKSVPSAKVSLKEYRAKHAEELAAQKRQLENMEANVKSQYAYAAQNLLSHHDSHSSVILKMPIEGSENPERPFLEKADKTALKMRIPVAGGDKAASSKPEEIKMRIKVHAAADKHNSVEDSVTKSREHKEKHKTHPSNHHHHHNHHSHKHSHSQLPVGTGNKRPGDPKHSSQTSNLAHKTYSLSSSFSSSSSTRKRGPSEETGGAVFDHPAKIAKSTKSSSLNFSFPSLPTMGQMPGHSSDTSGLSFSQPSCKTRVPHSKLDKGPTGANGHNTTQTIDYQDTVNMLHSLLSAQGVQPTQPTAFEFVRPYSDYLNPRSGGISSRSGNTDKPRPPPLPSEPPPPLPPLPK", "conditions": "Zhu et al., 1997; cited from earlier work"}, "cardiac myocytes [6]": {"test_system": "cardiac myocytes", "assay": "Myocyte apoptosis by flow cytometry (hypodiploid DNA)", "assay_type": "cell-based", "source_text": "Myocyte apoptosis was monitored by flow cytometry as hypodiploid DNA, using FITC-conjugated MF20 antibody to sarcomeric myosin heavy chains and propidium iodide in the presence of RNase A (Oh et al., 2001)."}, "Cdk9 [7]": {"biological_target": "T2, Cdk9 (Rattus norvegicus, UniProt Q641Z4)", "T2 construct": "endogenous in cells; host or cells: neonatal rat ventricular myocytes; immunoprecipitated with polyclonal rabbit anti-Cdk9 and protein A-Sepharose", "T2 sequence (Q641Z4 whole entry)": "as the sequence (Q99J95 whole entry) above", "assay": "Immune complex CTD kinase assay (GST-CTD substrate), Cdk9", "assay_type": "biochemical", "procedure": "as §4, §2"}, "cyclin T/Cdk9 complex": {"test_system": "cyclin T/Cdk9 complex", "assay": "Co-precipitation of 7SK snRNA with cyclin T/Cdk9 (RT-PCR of immune complexes)", "assay_type": "cell-based, rat", "conditions": "cardiac myocytes treated with ET-1", "procedure": "Total RNA was isolated from Cdk9, cyclin T1, cyclin T2, and Cdk7 immune complexes using TRIzol and subjected to DNase I (Invitrogen) for 15 min at room temperature, followed by reverse transcription using antisense oligonucleotides for 7SK snRNA. The PCR primers were: sense, (SEQ. ID. NO. 3) […]; antisense, (SEQ. ID. NO. 4) […]. PCR products were subjected to electrophoresis on 2% agarose gel and stained with ethidium bromide.\nET-1 caused the rapid loss of Cdk9-associated 7SK snRNA, within 15 min. These findings were substantiated using each of three antibodies to the cyclin T/Cdk9 complex. Levels of 7SK RNA in the corresponding total cell lysates were unchanged. […] Thus, hypertrophic signals in cultured cardiac myocytes and the intact heart induce the dissociation of 7SK RNA from endogenous cyclin T/Cdk9. […] Conversely, endogenous cyclin T/Cdk9 was recovered from cardiac lysates using streptavidin-agarose plus a biotinylated 2′-O-methyl (2′-OMe) oligonucleotide complementary to 7SK snRNA (FIG. 3G): this method confirmed independently the dissociation of 7SK snRNA from cardiac cyclin T/Cdk9 for Gq and calcineurin."}, "[8]": {"conditions": "50 μM, cardiac myocytes, [3H]uridine incorporation"}, "[9]": {"conditions": "antisense knockdown of 7SK snRNA, 48 hr after transfection, cardiac myocytes"}}}
{"molecule": "CNC[C@H](O)c1cccc(O)c1", "note": "[PE, phenylephrine]", "values": [{"measurement": "hyperphosphorylation of pol II", "setting": "pol II CTD", "result": "induced"}]}
{"molecule": "mouse cyclin T1 (cardiac-specific αMHC-cyclin T1 transgene) (from UniProt Q9QWV9 1-724)", "values": [{"measurement": "Cdk9 activity (immune complex CTD kinase assay), high-expression transgenic line", "setting": "[1]", "result": 6, "unit": "fold"}, {"measurement": "Cdk9 activity (immune complex CTD kinase assay), low-expression transgenic line", "setting": "[1]", "result": 2, "unit": "fold"}, {"measurement": "baseline Cdk9 activity (immune complex kinase assay), cyclin T1 mice versus wild-type littermates", "setting": "[1]", "result": 4.4, "unit": "fold"}]}
{"molecule": "OC[C@H]1O[C@@H](n2cnc3cc(Cl)c(Cl)cc32)[C@H](O)[C@@H]1O", "note": "[DRB, 5,6-dichloro-1-beta-D-ribofuranosylbenzimidazole]", "values": [{"measurement": "ET-1-associated increase in myocyte size", "setting": "cardiac myocytes [2]", "result": "blocked"}, {"measurement": "inhibition of ET-1 induced RNA synthesis", "setting": "cardiac myocytes [3]; [8]", "result": "~80", "unit": "%"}, {"measurement": "inhibition of basal RNA synthesis", "setting": "cardiac myocytes [3]; [8]", "result": "~80", "unit": "%"}, {"measurement": "Cdk7 activity (phosphorylation of recombinant CTD substrate)", "setting": "Cdk7", "result": "little or no effect"}, {"measurement": "phosphorylation of mitogen-activated protein kinases downstream of ET-1", "setting": "[4]", "result": "without impairing"}, {"measurement": "ET-1-induced pol II phosphorylation", "setting": "pol II CTD; 50 μM DRB, preincubated 2 hr, ET-1 15 min, cultured cardiac myocytes", "result": "inhibited"}, {"measurement": "selectivity among CTD kinases", "setting": "Cdk9 [5]", "result": "selective activity against Cdk9"}, {"measurement": "apoptosis", "setting": "cardiac myocytes [6]; conditions sufficient to block ET-1 induction of pol II phosphorylation almost completely", "result": "no increase in apoptosis"}, {"measurement": "cell death", "setting": "cardiac myocytes [6]; higher concentrations that block RNA synthesis more completely", "result": "did induce cell death"}, {"measurement": "Cdk9 activity (phosphorylation of recombinant CTD substrate)", "setting": "Cdk9 [7]; 50 μM DRB added in vitro to cardiac immune complexes", "result": "blocked Cdk9 activity almost completely"}]}
{"molecule": "antisense 7SK: antisense phosphorothioate oligonucleotide, SEQ. ID. NO. 1, 5′-CCTTGAGAGCTTGTTTGG AGG-3′, against 7SK snRNA (antisense CCTTGAGAGCTTGTTTGGAGG; all phosphorothioate, sugars by position and methylation of C not given here)", "values": [{"measurement": "uridine incorporation", "setting": "cardiac myocytes [3]; [9]", "result": "as large an increase in uridine incorporation as did ET-1 itself"}, {"measurement": "endogenous Cdk9 activity", "setting": "Cdk9 [7]; [9]", "result": "markedly increased"}]}
{"molecule": "endothelin-1 [ET-1]", "values": [{"measurement": "augmentation of [3H]uridine incorporation", "setting": "cardiac myocytes [3]; control eGFP-infected myocytes, 24 hr", "result": "one-third"}, {"measurement": "increase in proportion of pol IIo", "setting": "pol II CTD; ET-1 time course, peak at 15 min, from 4% at baseline", "result": 9, "unit": "fold"}, {"measurement": "maximum proportion of pol IIo", "setting": "pol II CTD; ET-1 time course, peak at 15 min, baseline 4%", "result": 36, "unit": "%"}, {"measurement": "preferred CTD heptad residue phosphorylated", "setting": "pol II CTD; phospho-epitope specific antibodies, Ser2 vs Ser5", "result": "preferentially induce phosphorylation at Ser2"}, {"measurement": "hyperphosphorylation of pol II", "setting": "pol II CTD", "result": "induced"}, {"measurement": "Cdk9 CTD kinase activity", "setting": "Cdk9 [7]; ventricular myocytes stimulated with ET-1 for 15 min", "result": "increased"}, {"measurement": "time to loss of Cdk9-associated 7SK snRNA", "setting": "cyclin T/Cdk9 complex", "result": "≤ 15", "unit": "min"}]}
{"molecule": "B1", "values": [{"measurement": "hyperphosphorylation of pol II", "setting": "pol II CTD", "result": "induced"}]}
{"molecule": "B2", "values": [{"measurement": "Cdk9 kinase activity after treatment of immune complexes", "setting": "Cdk9 [7]; RNase A 50 μg/ml 60 min, control cells, GST-CTD substrate", "result": "levels even higher than did ET-1"}]}
